From patent publication US12419865B2 (priority 2018, dated 2025)
Like-named read-outs stand apart in the source and are kept apart here.

Legend:
LASV-p = test: microbe, parasite or virus in culture; format: cell-based, Lassa (LASV); settings: Vesicular stomatitis virus, Vero, read-out: LASV-p EC50
JUNV-p = test: organism not typed; format: cell-based, Junin (JUNV); settings: Vero, read-out: JUNV-p EC50
TCRV-p = test: organism not typed; format: cell-based; settings: read-out: TCRV-p EC50
in vitro = settings: African green monkey
MACV-p = test: organism not typed; format: cell-based, Machupo (MACV); settings: Vero, read-out: MACV-p EC50
VSV-p = test: microbe, parasite or virus in culture; format: cell-based; settings: Vesicular stomatitis virus, Vero, read-out: VSV-p EC50
[1] = 1 h, pH 7.4
[2] = guinea pig, 1 h, pH 7.4
[3] = 1 h, pH 7.4; remark: listed apart in the source
replicative LASV = test: microbe, parasite or virus in culture; format: cell-based, Lassa Virus; settings: for EC90: Mammarenavirus lassaense

Row | Structure (SMILES) | EC50 (LASV-p) [nM] | EC50 (JUNV-p) [nM] | EC50 (TCRV-p; Vero) [nM] | CC50 (in vitro) [nM] | EC50 (MACV-p) [nM] | EC50 (VSV-p) [nM] | Percent parent compound remaining at 60 minutes in liver microsomes, Mouse [1] [%] | Percent parent compound remaining at 60 minutes in liver microsomes, Guinea [2] [%] | Percent parent compound remaining at 60 minutes in liver microsomes, Human [3] [%] | Sl90 (replicative LASV) | EC90 (replicative LASV; Vero, read-out: VYR Assay EC90) [nM] | EC90 (replicative LASV; read-out: EC90 in the VYR assay format) [nM] | EC50 (TCRV-p) [nM]
1 | CCc1cc2nnn(-c3ccc(OC(C)C)cc3)c2cc1-c1ccc(OC(C)C)cc1 [Example C26, 5-ethyl-1,6-bis(4-isopropoxphenyl)-1H-benzo[d][1,2,3]triazole] | 3.9 | 0.1 | 5.92 | 3590 | 0.04 | > 10000 | – | – | – | – | – | – | –
2 | CC(C)Oc1ccc(-c2ccc3nnn(-c4ccc(OC(C)C)cc4)c3c2F)cc1 [Example C12, 7-fluoro-1,6-bis(4-isopropoxyphenyl)-1H-benzo[d][1,2,3]triazole] | 1.31 | 0.15 | 15 | > 100000 | 0.55 | > 10000 | 90.3 | >95 | >95 | – | – | – | –
3 | COc1cc2nnn(-c3ccc(OC(C)C)cc3)c2cc1-c1ccc(OC(C)C)cc1 [Example C15, 1,6-bis(4-isopropoxyphenyl)-5-methoxy-1H-benzo[d][1,2,3]triazole] | 23.4 | 3.06 | 11.4 | 98400 | 7.09 | > 10000 | – | – | – | – | – | – | –
4 | CC(C)Oc1ccc(-c2cc3c(cc2N)nnn3-c2ccc(OC(C)C)cc2)cc1 [Example C23, 1,6-bis(4-isopropoxyphenyl)-1H-benzo[d][1,2,3]triazol-5-amine] | 6.72 | 0.29 | 0.96 | 43000 | 0.53 | > 10000 | – | – | – | – | – | – | –
5 | CC(C)Oc1ccc(-c2cc3c(cc2CN)nnn3-c2ccc(OC(C)C)cc2)cc1 [Example C22, (1,6-bis(4-isopropoxyphenyl)-1H-benzo[d][1,2,3]triazol-5-yl)methanamine] | > 25 | > 25 | > 25 | – | > 25 | > 10000 | – | – | – | – | – | – | –
6 | C=Cc1cc2nnn(-c3ccc(OC(C)C)cc3)c2cc1-c1ccc(OC(C)C)cc1 [Example C25, 1,6-bis(4-isopropoxyphenyl)-5-vinyl-1H-benzo[d][1,2,3]triazole] | 6.78 | 1.47 | 8.01 | 3870 | 0.3 | > 10000 | – | – | – | – | – | – | –
7 | Cc1nc2ncc(-c3ccc(C(C)(C)O)cc3)n2cc1-c1ccc(OC(C)C)cc1 [Example D29, 2-(4-(6-(4-isopropoxphenyl)-7-methylimidazo[1,2-a]pyrimidin-3-yl)phenyl)propan-2-ol] | 1.84 | 1.03 | 1.27 | 42100 | 0.87 | > 10000 | – | – | – | – | – | – | –
8 | COC(=O)c1cc2nnn(-c3ccc(OC(C)C)cc3)c2cc1-c1ccc(OC(C)C)cc1 [Example C10, methyl 1,6-bis(4-isopropoxyphenyl)-1H-benzo[d][1,2,3]triazole-5-carboxylate] | 20.6 | 11 | 12.3 | > 100000 | 4.05 | > 10000 | – | – | – | – | – | – | –
9 | CC(C)Oc1ccc(-c2cc3c(cc2F)nnn3-c2ccc(OC(C)C)cc2)cc1 [Example C13, 5-fluoro-1,6-bis(4-isopropoxyphenyl)-1H-benzo[d][1,2,3]triazole] | 4 | 0.27 | 1.53 | > 100000 | 0.66 | > 10000 | – | – | 79.5 | – | – | – | –
10 | CC(C)Oc1ccc(-c2cc3c(cc2CO)nnn3-c2ccc(OC(C)C)cc2)cc1 [Example C19, (1,6-bis(4-isopropoxyphenyl)-1H-benzo[d][1,2,3]triazol-5-yl)methanol] | 22.5 | 0.75 | 8 | 81700 | 3.82 | > 10000 | – | – | – | – | – | – | –
11 | COc1cc2nnn(-c3ccc(O)cc3)c2cc1-c1ccc(O)cc1 [Example C24, 4,4′-(5-methoxy-1H-benzo[d][1,2,3]triazole-1,6-diyl)diphenol] | 4.62 | 19 | 18.4 | 32200 | > 25 | > 10000 | – | – | – | – | – | – | –
12 | CC(C)Oc1ccc(-c2cc3c(cc2C(N)=O)nnn3-c2ccc(OC(C)C)cc2)cc1 [Example C21, 1,6-bis(4-isopropoxyphenyl)-1H-benzo[d][1,2,3]triazole-5-carboxamide] | > 25 | > 25 | > 25 | – | > 25 | > 10000 | – | – | – | – | – | – | –
13 | [2H]C([2H])([2H])C([2H])(Oc1ccc(-c2cn3c(-c4ccc(OC(C)(C)C)cc4)cnc3cc2C)cc1)C([2H])([2H])[2H] [Example E30, 3-(4-(tert-butoxy)phenyl)-6-(4-(isopropoxy-d7)phenyl)-7-methylimidazo[1,2-a]pyridine] | 0.39 | 0.09 | – | 3800 | 0.09 | – | – | – | – | >1,510 | < 14 | < 14 | 0.2
14 | Cc1nc2ncc(-c3ccc(OC(C)(C)C)cc3)n2cc1-c1ccc(OC(C)C)cc1 [Example D28, 3-(4-(tert-butoxy)phenyl)-6-(4-isopropoxyphenyl)-7-methylimidazo[1,2-a]pyrimidine] | 0.3 | 0.4 | 0.15 | 12300 | 0.31 | > 10000 | – | – | – | – | – | – | –
15 | CC(C)Oc1ccc(-c2cc3c(cc2C(=O)O)nnn3-c2ccc(OC(C)C)cc2)cc1 [Example C20, 1,6-bis(4-isopropoxyphenyl)-1H-benzo[d][1,2,3]triazole-5-carboxylic acid] | > 25 | > 25 | > 25 | – | > 25 | > 10000 | – | – | – | – | – | – | –
16 | Cc1cc2ncc(-c3ccc(C(C)(C)O)cc3)n2cc1-c1ccc(C(C)(C)O)cc1 [Example B9, 2,2′-((7-methylimidazo[1,2-a]pyridine-3,6-diyl)bis(4,1-phenylene))bis(propan-2-ol)] | > 25 | > 25 | 16.1 | – | > 25 | > 10000 | – | – | – | – | – | – | –
17 | Cc1nc2ncc(-c3ccc(OC(C)C)cc3)n2cc1-c1ccc(OC(C)C)cc1 [Example D27, 3,6-bis(4-isopropoxyphenyl)-7-methylimidazo[1,2-a]pyrimidine] | 0.75 | 0.78 | 0.2 | 2180 | 0.85 | > 10000 | – | – | – | – | – | – | –
18 | CC(C)Oc1ccc(-n2nnc3ccc(-c4cccc(OC(C)C)c4)cc32)cc1 [Example C18, 6-(3-isopropoxyphenyl)-1-(4-isopropoxyphenyl)-1H-benzo[d][1,2,3]triazole] | > 25 | > 25 | > 25 | – | > 25 | > 10000 | – | – | – | – | – | – | –
19 | CC(C)Oc1ccc(-n2nnc3ccc(-c4cccc(C(C)(C)O)c4)cc32)cc1 [Example C17, 2-(3-(1-(4-isopropoxyphenyl)-1H-benzo[d][1,2,3]triazol-6-yl)phenyl)propan-2-ol] | 15.8 | 12.2 | > 25 | 10500 | > 25 | > 10000 | – | – | – | – | – | – | –
